# Measurements published in patent EP0908457B1, “3-(1,2-benzisothiazol- and isoxazol-5-Y1)-2,4(1H,3H)-pyrimidinedione or thione and 3-(1,2-benzisothiazol- and isoxazol-5-y1)-4(3H)-pyrimidinone or thione herbicidal agents” (BASF AKTIENGESELLSCHAFT, priority 1997, dated 1999).
# Columns and labels:
# [1] = system: Echinochloa oryzoides (Ard.) Fritsch.; test: Preemergence weed control under flooded paddy conditions, ECHORC (Watergrass (Calif.)); format: in vivo; details: flooded paddy; for herbicidal effect rating, ECHORC / ECHORC herbicidal effect rating: preemergence; for ECHORC: preemergence weeds, herbicidal effect rating 0-9, three to four weeks after treatment; as to herbicidal effect rating, ECHORC: meaning of each grade not given here
# Cyperus iria = test: Preemergence weed control under flooded paddy conditions, CYPIR (Rice Flatsedge); format: in vivo; details: flooded paddy; for herbicidal effect rating, CYPIR / CYPIR herbicidal effect rating: preemergence; for CYPIR: preemergence weeds, herbicidal effect rating 0-9, three to four weeks after treatment; as to herbicidal effect rating, CYPIR: meaning of each grade not given here
# [2] = system: Cyperus serotinus, Rottb.; test: Preemergence weed control under flooded paddy conditions, CYPSE (Flatsedge); format: in vivo; details: for herbicidal effect rating, CYPSE / CYPSE herbicidal effect rating: preemergence; for CYPSE: preemergence weeds, herbicidal effect rating 0-9, three to four weeks after treatment; as to herbicidal effect rating, CYPSE: meaning of each grade not given here
# [3] = system: Monochoria vaginalis, Presl.; test: Preemergence weed control under flooded paddy conditions, MOOVA (Monochoria); format: in vivo; details: flooded paddy; for herbicidal effect rating, MOOVA / MOOVA herbicidal effect rating: preemergence; for MOOVA: preemergence weeds, herbicidal effect rating 0-9, three to four weeks after treatment; as to herbicidal effect rating, MOOVA: meaning of each grade not given here
# Sagittaria pygmaea, L. = test: Preemergence weed control under flooded paddy conditions, SAGPY (Arrowhead (Pygmaea)); format: in vivo; details: flooded paddy; for herbicidal effect rating, SAGPY / SAGPY herbicidal effect rating: preemergence; for SAGPY: preemergence weeds, herbicidal effect rating 0-9, three to four weeks after treatment; as to herbicidal effect rating, SAGPY: meaning of each grade not given here
# [4] = system: Oryza sativa, (L.) Tebonnet; test: Rice tolerance to post-transplant applications under flooded paddy conditions (Example 187), ORYSAT (Rice, Tebonnet); details: for ORYSAT: herbicidal effect rating 0-9, three to four weeks after treatment; as to herbicidal effect rating ORYSAT: meaning of each grade not given here
# [5] = Rate 0.0320 kg/ha, rated 3-4 weeks after treatment
# [6] = Rate 0.0620 kg/ha, rated 3-4 weeks after treatment
# [7] = Rate 0.1250 kg/ha, rated 3-4 weeks after treatment
# [8] = Rate 0.2500 kg/ha, rated 3-4 weeks after treatment
# [9] = Rate 0.0320 kg/ha, rated three to four weeks after treatment
# [10] = Rate 0.0620 kg/ha, rated three to four weeks after treatment
# [11] = Rate 0.1250 kg/ha, rated three to four weeks after treatment
# [12] = Rate 0.2500 kg/ha, rated three to four weeks after treatment
# [13] = Rate 0.5000 kg/ha, rated three to four weeks after treatment
# [14] = 0.0313 kg/ha, rated three to four weeks after treatment
# [15] = 0.0625 kg/ha, rated three to four weeks after treatment
# [16] = 0.1250 kg/ha, rated three to four weeks after treatment
# [17] = 0.2500 kg/ha, rated three to four weeks after treatment
smiles,measurement,setting,value
"CCCCCCC#CCCOC(=O)COc1ccc(C)cc1-c1nsc2ccc(-n3c(=O)cc(C(F)(F)F)n(C)c3=O)cc12 [Example 522, Acetic acid, {{2-{5-[3,6-dihydro-3-methyl-2,6-dioxo-4-(trifluoromethyl)-1(2H)-pyrimidinyl]-1,2-benzisothiazol-3-yl}-p-tolyl}oxy}-, 3-decynyl ester]","herbicidal effect rating, ECHORC",[1]; [5],5.5
same,"herbicidal effect rating, ECHORC",[1]; [6],6.5
same,"herbicidal effect rating, ECHORC",[1]; [7],8.0
same,"herbicidal effect rating, ECHORC",[1]; [8],9.0
same,"herbicidal effect rating, CYPIR",Cyperus iria; [5],0.0
same,"herbicidal effect rating, CYPIR",Cyperus iria; [6],0.0
same,"herbicidal effect rating, CYPIR",Cyperus iria; [7],0.0
same,"herbicidal effect rating, CYPIR",Cyperus iria; [8],2.0
same,"herbicidal effect rating, CYPSE",[2]; [5],0.0
same,"herbicidal effect rating, CYPSE",[2]; [6],0.0
same,"herbicidal effect rating, CYPSE",[2]; [7],0.0
same,"herbicidal effect rating, CYPSE",[2]; [8],0.0
same,"herbicidal effect rating, MOOVA",[3]; [5],9.0
same,"herbicidal effect rating, MOOVA",[3]; [6],9.0
same,"herbicidal effect rating, MOOVA",[3]; [7],9.0
same,"herbicidal effect rating, MOOVA",[3]; [8],9.0
same,"herbicidal effect rating, SAGPY","Sagittaria pygmaea, L.; [5]",0.0
same,"herbicidal effect rating, SAGPY","Sagittaria pygmaea, L.; [6]",0.0
same,"herbicidal effect rating, SAGPY","Sagittaria pygmaea, L.; [7]",0.0
same,"herbicidal effect rating, SAGPY","Sagittaria pygmaea, L.; [8]",0.0
same,herbicidal effect rating ORYSAT,[4]; [5],2.5
same,herbicidal effect rating ORYSAT,[4]; [6],4.0
same,herbicidal effect rating ORYSAT,[4]; [7],4.0
same,herbicidal effect rating ORYSAT,[4]; [8],4.5
"COC(=O)COc1c(-c2nsc3ccc(-n4c(=O)cc(C(F)(F)F)n(C)c4=O)cc23)ccc(C)c1C [Example 274, Acetic acid, {{6-{5-[3,6-dihydro-3-methyl-2,6-dioxo-4-(trifluoromethyl)-1(2H)-pyrimidinyl]-1,2-benzisothiazol-3-yl}-2,3-xylyl}oxy}-, methyl ester]",ECHORC herbicidal effect rating,[1]; [9],3.3
same,ECHORC herbicidal effect rating,[1]; [10],4.1
same,ECHORC herbicidal effect rating,[1]; [11],5.9
same,ECHORC herbicidal effect rating,[1]; [12],9.0
same,ECHORC herbicidal effect rating,[1]; [13],9.0
same,CYPIR herbicidal effect rating,Cyperus iria; [9],7.0
same,CYPIR herbicidal effect rating,Cyperus iria; [10],8.0
same,CYPIR herbicidal effect rating,Cyperus iria; [11],9.0
same,CYPIR herbicidal effect rating,Cyperus iria; [12],9.0
same,CYPIR herbicidal effect rating,Cyperus iria; [13],2.0
same,CYPSE herbicidal effect rating,[2]; [9],0.0
same,CYPSE herbicidal effect rating,[2]; [10],2.0
same,CYPSE herbicidal effect rating,[2]; [11],8.0
same,CYPSE herbicidal effect rating,[2]; [12],9.0
same,CYPSE herbicidal effect rating,[2]; [13],9.0
same,MOOVA herbicidal effect rating,[3]; [9],9.0
same,MOOVA herbicidal effect rating,[3]; [10],9.0
same,MOOVA herbicidal effect rating,[3]; [11],9.0
same,MOOVA herbicidal effect rating,[3]; [12],9.0
same,MOOVA herbicidal effect rating,[3]; [13],9.0
same,SAGPY herbicidal effect rating,"Sagittaria pygmaea, L.; [9]",0.0
same,SAGPY herbicidal effect rating,"Sagittaria pygmaea, L.; [10]",0.0
same,SAGPY herbicidal effect rating,"Sagittaria pygmaea, L.; [11]",4.0
same,SAGPY herbicidal effect rating,"Sagittaria pygmaea, L.; [12]",9.0
same,SAGPY herbicidal effect rating,"Sagittaria pygmaea, L.; [13]",4.0
same,ORYSAT herbicidal effect rating,[4]; [9],2.0
same,ORYSAT herbicidal effect rating,[4]; [10],4.0
same,ORYSAT herbicidal effect rating,[4]; [11],4.0
same,ORYSAT herbicidal effect rating,[4]; [12],8.0
same,ORYSAT herbicidal effect rating,[4]; [13],7.0
"CN(c1ccc(-c2nsc3ccc(-n4c(=O)cc(C(F)(F)F)n(C)c4=O)cc23)cc1)S(C)(=O)=O [Example 430, Methanesulfonanilide, 4'-{5-[3,6-dihydro-3-methyl-2,6-dioxo-4-(trifluoromethyl)-1(2H)-pyrimidinyl]-1,2-benzisothiazol-3-yl}-N-methyl-]",ECHORC,[1]; 0.0320 kg/ha,5.0
same,ECHORC,[1]; 0.0620 kg/ha,5.0
same,ECHORC,[1]; 0.1250 kg/ha,7.0
same,ECHORC,[1]; 0.2500 kg/ha,9.0
same,CYPIR,Cyperus iria; 0.0320 kg/ha,2.0
same,CYPIR,Cyperus iria; 0.0620 kg/ha,6.0
same,CYPIR,Cyperus iria; 0.1250 kg/ha,7.0
same,CYPIR,Cyperus iria; 0.2500 kg/ha,6.0
same,CYPSE,[2]; 0.0320 kg/ha,0.0
same,CYPSE,[2]; 0.0620 kg/ha,0.0
same,CYPSE,[2]; 0.1250 kg/ha,2.0
same,CYPSE,[2]; 0.2500 kg/ha,7.0
same,MOOVA,[3]; 0.0320 kg/ha,9.0
same,MOOVA,[3]; 0.0620 kg/ha,9.0
same,MOOVA,[3]; 0.1250 kg/ha,9.0
same,MOOVA,[3]; 0.2500 kg/ha,9.0
same,SAGPY,"Sagittaria pygmaea, L.; 0.1250 kg/ha",6.0
same,SAGPY,"Sagittaria pygmaea, L.; 0.2500 kg/ha",7.0
same,ORYSAT,[4]; 0.0320 kg/ha,3.0
same,ORYSAT,[4]; 0.0620 kg/ha,2.0
same,ORYSAT,[4]; 0.1250 kg/ha,4.0
same,ORYSAT,[4]; 0.2500 kg/ha,3.0
"Cc1ccc(OC(C)C(=O)NS(C)(=O)=O)c(-c2nsc3ccc(-n4c(=O)cc(C(F)(F)F)n(C)c4=O)cc23)c1 (stereo not drawn) [Example 572, Propionamide, 2-{{2-{5-[3,6-dihydro-3-methyl-2,6-dioxo-4-(trifluoromethyl)-1(2H)-pyrimidinyl)-1,2-benzisothiazol-3-yl}-p-tolyl}oxy}-N-(methylsulfonyl)-]","herbicidal effect rating, ECHORC",[1]; [9],0.0
same,"herbicidal effect rating, ECHORC",[1]; [10],0.0
same,"herbicidal effect rating, ECHORC",[1]; [11],2.0
same,"herbicidal effect rating, ECHORC",[1]; [12],6.0
same,"herbicidal effect rating, CYPIR",Cyperus iria; [9],0.0
same,"herbicidal effect rating, CYPIR",Cyperus iria; [10],0.0
same,"herbicidal effect rating, CYPIR",Cyperus iria; [11],2.0
same,"herbicidal effect rating, CYPIR",Cyperus iria; [12],5.0
same,"herbicidal effect rating, CYPSE",[2]; [9],0.0
same,"herbicidal effect rating, CYPSE",[2]; [10],0.0
same,"herbicidal effect rating, CYPSE",[2]; [11],0.0
same,"herbicidal effect rating, CYPSE",[2]; [12],2.0
same,"herbicidal effect rating, MOOVA",[3]; [9],0.0
same,"herbicidal effect rating, MOOVA",[3]; [10],6.0
same,"herbicidal effect rating, MOOVA",[3]; [11],6.0
same,"herbicidal effect rating, MOOVA",[3]; [12],9.0
same,"herbicidal effect rating, SAGPY","Sagittaria pygmaea, L.; [9]",0.0
same,"herbicidal effect rating, SAGPY","Sagittaria pygmaea, L.; [10]",0.0
same,"herbicidal effect rating, SAGPY","Sagittaria pygmaea, L.; [11]",0.0
same,"herbicidal effect rating, SAGPY","Sagittaria pygmaea, L.; [12]",3.0
same,herbicidal effect rating ORYSAT,[4]; [9],0.0
same,herbicidal effect rating ORYSAT,[4]; [10],1.0
same,herbicidal effect rating ORYSAT,[4]; [11],3.0
same,herbicidal effect rating ORYSAT,[4]; [12],6.0
"COc1ccc(C)cc1-c1nsc2ccc(-n3c(=O)cc(C)n(C)c3=O)cc12 [Example 24, 3-[3-(6-Methoxy-m-tolyl)-1,2-benzisothiazol-5-yl]-1,6-dimethyl-2,4(1H,3H)-pyrimidinedione]","herbicidal effect rating, ECHORC",[1]; [14],0.0
same,"herbicidal effect rating, ECHORC",[1]; [15],0.0
same,"herbicidal effect rating, ECHORC",[1]; [16],2.0
same,"herbicidal effect rating, ECHORC",[1]; [17],7.0
same,"herbicidal effect rating, CYPIR",Cyperus iria; [14],0.0
same,"herbicidal effect rating, CYPIR",Cyperus iria; [15],2.0
same,"herbicidal effect rating, CYPIR",Cyperus iria; [16],6.0
same,"herbicidal effect rating, CYPIR",Cyperus iria; [17],8.0
same,"herbicidal effect rating, CYPSE",[2]; [14],0.0
same,"herbicidal effect rating, CYPSE",[2]; [15],0.0
same,"herbicidal effect rating, CYPSE",[2]; [16],1.0
same,"herbicidal effect rating, CYPSE",[2]; [17],4.0
same,"herbicidal effect rating, MOOVA",[3]; [14],4.0
same,"herbicidal effect rating, MOOVA",[3]; [15],8.0
same,"herbicidal effect rating, MOOVA",[3]; [16],9.0
same,"herbicidal effect rating, MOOVA",[3]; [17],9.0
same,"herbicidal effect rating, SAGPY","Sagittaria pygmaea, L.; [14]",0.0
same,"herbicidal effect rating, SAGPY","Sagittaria pygmaea, L.; [15]",0.0
same,"herbicidal effect rating, SAGPY","Sagittaria pygmaea, L.; [16]",0.0
same,"herbicidal effect rating, SAGPY","Sagittaria pygmaea, L.; [17]",0.0
same,"herbicidal effect rating, ORYSAT (rice tolerance)",[4]; [14],2.0
same,"herbicidal effect rating, ORYSAT (rice tolerance)",[4]; [15],2.0
same,"herbicidal effect rating, ORYSAT (rice tolerance)",[4]; [16],3.0
same,"herbicidal effect rating, ORYSAT (rice tolerance)",[4]; [17],4.0
"COC(=O)CN(C(=O)c1nsc2ccc(-n3c(=O)cc(C(F)(F)F)n(C)c3=O)cc12)S(=O)(=O)Cc1ccccc1 [Example 441, Glycine, N-(benzylsulfonyl)-N-{{5-[3,6-dihydro-3-methyl-2,6-dioxo-4-(trifluoromethyl)-1(2H)-pyrimidinyl]-1,2-benzisothiazol-3-yl}carbonyl}-, methyl ester]",ECHORC,[1]; 0.0320 kg/ha,0.0
same,ECHORC,[1]; 0.0620 kg/ha,0.0
same,ECHORC,[1]; 0.1250 kg/ha,0.0
same,ECHORC,[1]; 0.2500 kg/ha,3.0
same,CYPIR,Cyperus iria; 0.0320 kg/ha,4.0
same,CYPIR,Cyperus iria; 0.0620 kg/ha,6.0
same,CYPIR,Cyperus iria; 0.1250 kg/ha,9.0
same,CYPIR,Cyperus iria; 0.2500 kg/ha,9.0
same,CYPSE,[2]; 0.0620 kg/ha,0.0
same,CYPSE,[2]; 0.1250 kg/ha,4.0
same,CYPSE,[2]; 0.2500 kg/ha,7.0
same,MOOVA,[3]; 0.0320 kg/ha,9.0
same,MOOVA,[3]; 0.0620 kg/ha,9.0
same,MOOVA,[3]; 0.1250 kg/ha,9.0
same,MOOVA,[3]; 0.2500 kg/ha,9.0
same,SAGPY,"Sagittaria pygmaea, L.; 0.0320 kg/ha",0.0
same,SAGPY,"Sagittaria pygmaea, L.; 0.0620 kg/ha",2.0
same,SAGPY,"Sagittaria pygmaea, L.; 0.1250 kg/ha",3.0
same,SAGPY,"Sagittaria pygmaea, L.; 0.2500 kg/ha",6.0
same,ORYSAT,[4]; 0.0320 kg/ha,0.0
same,ORYSAT,[4]; 0.0620 kg/ha,0.0
same,ORYSAT,[4]; 0.1250 kg/ha,2.0
same,ORYSAT,[4]; 0.2500 kg/ha,3.0
